The text below walks through data of patent US8343999B2, “Thiazolyl compounds useful as kinase inhibitors” (Bristol-Myers Squibb Company, priority 2007, dated 2013).

One may read the IC50 as the concentration needed to halve the response being measured.

One experiment deals with IGF1-receptor (Homo sapiens, UniProt P08069). As to the kind of experiment: IGF1-Receptor Tyrosine Kinase Assay (Caliper LabChip, fluoresceinated IGF1R substrate peptide). In kind it is biochemical. Conditions: In vitro kinase data; ATP 25 μM, IGF1-Receptor 14 nM; read-out: IGF-1R IC50. On the procedure:
D. IGF1-Receptor Tyrosine Kinase Assay
The assays were performed in U-bottom 384-well plates. The final assay volume was 30 μl prepared from 15 μl additions of enzyme and substrates (fluoresceinated IGF1R substrate peptide and ATP) and test compounds in assay buffer (100 mM HEPES pH 7.4, 10 mM MnCl2, 0.015% Brij35 and 4 mM DTT). The reaction was initiated by the combination of IGF1-receptor with substrates and test compounds. The reaction was incubated at room temperature for 60 min. and terminated by adding 30 μl of 35 mM EDTA to each sample. The reaction mixture was analyzed on the Caliper LabChip 3000 by electrophoretic separation of the fluorescent substrate and phosphorylated product. Inhibition data were calculated by comparison to no enzyme control reactions for 100% inhibition and vehicle-only reactions for 0% inhibition. The final concentration of reagents in the assays is ATP, 25 μM; FL-peptide, 1.5 μM; IGF1-Receptor, 14 nM; and DMSO, 1.6%. Dose response curves were generated to determine the concentration required inhibiting 50% of kinase activity (IC50). Compounds were dissolved at 10 mM in dimethylsulfoxide (DMSO) and evaluated at eleven concentrations, each in duplicate. IC50 values were derived by non-linear regression analysis.
(§1) Compounds described herein were tested in the above assay.

The test system of a further experiment is IGF1R-Sal tumors. Kind of experiment: IGF-1R Sal Tumor Model (tumor xenograft in nude mice). Conditions: qd, orally for 4 consecutive days, nude mice bearing IGF1R-Sal tumors. Format: in vivo. On the procedure: P. IGF-1R Sal Tumor Model
A salivary gland adenocarcinoma that developed spontaneously in a transgenic mouse (MCI-19) was excised and cut into fragments of about 20 mg. Tumor fragments were implanted s.c. into the ventral thoracic region of a group of six female, athymic BALB/c nu/nu mice (Harley Sprague-Dawley, Indianapolis, Ind.), using a 13-gauge trocar. Once established, the salivary gland-derived tumor line was designated IGF1R-Sal and was propagated as a tumor xenograft in nude mice. Tumors were passaged every 2 weeks, at which time the tumor reached f500 to 1,000 mm3 in size. For treatment studies, nude micebearing IGF1R-Sal tumors of about 100 mm3 in size were sorted into groups of five for treatment with vehicle (80% polyethylene glycol 400 in water) alone or the test article. Compounds were administered either on a bid schedule (oral doses 8 hours apart) or on a once a day schedule orally (qd) for 4 consecutive days. Tumors were measured at the start and end of treatment. Activity was measured as % tumor growth inhibition (% TGI). The % TGI was determined using the following formula (Ct−Tt)/(Ct−Co) where Ct is defined as the median tumor size of the control group at the end of treatment, Co is defined as the median tumor size of the control group at the start of treatment, and Tt is defined as the median tumor size of the treated group at the end of treatment.
as §1

IGF1-receptor, sequence (P08069 31-1367): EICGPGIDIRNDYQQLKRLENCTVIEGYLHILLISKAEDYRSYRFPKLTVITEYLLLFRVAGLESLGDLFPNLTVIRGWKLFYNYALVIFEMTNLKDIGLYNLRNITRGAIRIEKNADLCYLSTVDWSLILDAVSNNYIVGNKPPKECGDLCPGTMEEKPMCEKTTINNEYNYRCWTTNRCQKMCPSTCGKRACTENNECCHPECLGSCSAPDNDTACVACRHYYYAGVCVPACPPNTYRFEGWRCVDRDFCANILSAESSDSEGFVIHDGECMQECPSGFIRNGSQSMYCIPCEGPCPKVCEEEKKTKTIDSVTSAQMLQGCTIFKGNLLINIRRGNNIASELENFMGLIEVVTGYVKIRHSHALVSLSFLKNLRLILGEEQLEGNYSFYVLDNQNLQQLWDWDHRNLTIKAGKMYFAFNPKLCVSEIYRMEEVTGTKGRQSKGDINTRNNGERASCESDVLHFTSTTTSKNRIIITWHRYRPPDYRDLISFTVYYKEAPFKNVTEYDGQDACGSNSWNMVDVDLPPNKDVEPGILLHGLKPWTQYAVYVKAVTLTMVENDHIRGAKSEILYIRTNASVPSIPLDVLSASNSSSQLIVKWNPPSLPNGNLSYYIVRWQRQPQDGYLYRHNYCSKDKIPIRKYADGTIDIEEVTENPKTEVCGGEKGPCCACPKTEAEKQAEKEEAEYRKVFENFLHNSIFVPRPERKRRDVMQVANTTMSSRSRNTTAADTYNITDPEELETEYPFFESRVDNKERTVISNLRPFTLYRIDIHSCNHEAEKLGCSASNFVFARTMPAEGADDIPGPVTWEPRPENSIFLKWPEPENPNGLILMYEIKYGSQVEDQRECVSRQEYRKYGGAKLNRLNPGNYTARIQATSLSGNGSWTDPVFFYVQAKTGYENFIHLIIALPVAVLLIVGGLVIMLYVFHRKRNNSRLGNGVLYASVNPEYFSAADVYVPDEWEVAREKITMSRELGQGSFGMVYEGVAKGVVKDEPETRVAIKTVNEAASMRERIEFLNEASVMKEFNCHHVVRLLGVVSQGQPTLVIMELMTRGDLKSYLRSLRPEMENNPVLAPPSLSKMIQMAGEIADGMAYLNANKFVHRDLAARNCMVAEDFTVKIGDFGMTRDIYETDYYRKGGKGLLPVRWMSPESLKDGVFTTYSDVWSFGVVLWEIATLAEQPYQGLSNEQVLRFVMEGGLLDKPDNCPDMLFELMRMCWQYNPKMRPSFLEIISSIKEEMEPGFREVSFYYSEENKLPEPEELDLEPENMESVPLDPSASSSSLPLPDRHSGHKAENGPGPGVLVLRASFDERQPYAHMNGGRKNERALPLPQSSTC

Consider `Cc1ccnc(Nc2ncc(Sc3ccnc(C(=O)NCC4(c5ccccc5)CCN(C)CC4)c3F)s2)c1` [Example 2, 3-Fluoro-N-((1-methyl-4-phenylpiperidin-4-yl)methyl)-4-(2-(4-methylpyridin-2-ylamino)thiazol-5-ylthio)picolinamide], for which, at IGF1-receptor, the IC50 worked out at 9 nM. In the experiment with IGF1R-Sal tumors (12.5 mg/kg), the “% TGI” value is given as 107%. As for `Cc1ccnc(Nc2ncc(Sc3ccnc(C(=O)NCC4(c5ccccc5)CCN(CCO)CC4)c3F)s2)c1` [Example 5, 3-Fluoro-N-((1-(2-hydroxyethyl)-4-phenylpiperidin-4-yl)methyl)-4-(2-(4-methylpyridin-2-ylamino)thiazol-5-ylthio)picolinamide], the IC50 at IGF1-receptor is 3 nM. Moreover, the “% TGI” value in the experiment with IGF1R-Sal tumors (12.5 mg/kg) was determined as 102%. As for `Cc1ccnc(Nc2ncc(Sc3ccnc(C(=O)NCC4(c5ccccc5)CCNCC4)c3F)s2)c1` [Example 11, 3-Fluoro-4-(2-(4-methylpyridin-2-ylamino)thiazol-5-ylthio)-N-((4-phenylpiperidin-4-yl)methyl)picolinamide], the IC50 at IGF1-receptor turned out to be 4 nM. For the same compound, the “% TGI” value with IGF1R-Sal tumors (12.5 mg/kg) turned out to be 19%.

For `Cc1ccnc(Nc2ncc(Sc3ccnc(C(=O)NCC4(c5ccccc5)CCN(C(=O)CN(C)C)CC4)c3F)s2)c1` [Example 12, N-((1-(2-(dimethylamino)acetyl)-4-phenylpiperidin-4-yl)methyl)-3-fluoro-4-(2-(4-methylpyridin-2-ylamino)thiazol-5-ylthio)picolinamide], the concentration for half-maximal inhibition (IC50) on IGF1-receptor amounted to 6 nM. In addition, the “% TGI” value in the experiment with IGF1R-Sal tumors (12.5 mg/kg) was found to be 92%. With `Cc1ccnc(Nc2ncc(Sc3ccnc(C(=O)NCC4(c5ccccc5)CCN(C(=O)c5cccnc5)CC4)c3F)s2)c1` [Example 18, 3-Fluoro-4-(2-(4-methylpyridin-2-ylamino)thiazol-5-ylthio)-N-((1-nicotinoyl-4-phenylpiperidin-4-yl)methyl)picolinamide], the 50% inhibitory concentration (IC50) at IGF1-receptor was found to be 1 nM. On the same count and under the same terms, for `CC(=O)N1CCC(CNC(=O)c2nccc(Sc3cnc(Nc4cc(C)ccn4)s3)c2F)(c2ccccc2)CC1` [Example 22, N-((1-acetyl-4-phenylpiperidin-4-yl)methyl)-3-fluoro-4-(2-(4-methylpyridin-2-ylamino)thiazol-5-ylthio)picolinamide] the value was 3 nM; for `Cc1ccnc(Nc2ncc(Sc3ccnc(C(=O)NCC4(c5ccccc5)CCN(S(C)(=O)=O)CC4)c3F)s2)c1` [Example 24, 3-Fluoro-4-(2-(4-methylpyridin-2-ylamino)thiazol-5-ylthio)-N-((1-(methylsulfonyl)-4-phenylpiperidin-4-yl)methyl)picolinamide], 1 nM. Take `Cc1ccnc(Nc2ncc(Sc3ccnc(C(=O)NCC4(c5ccccc5)CCN(CCC#N)CC4)c3F)s2)c1` [Example 33, N-((1-(2-cyanoethyl)-4-phenylpiperidin-4-yl)methyl)-3-fluoro-4-(2-(4-methylpyridin-2-ylamino)thiazol-5-ylthio)picolinamide]: the IC50 on IGF1-receptor was found to be 320 nM. Still for that read-out and setting: for `Cc1ccnc(Nc2ncc(Sc3ccnc(C(=O)NCC4(C5CCCCC5)CCN(C(=O)OC(C)(C)C)CC4)c3F)s2)c1` [Example 44, tert-butyl 4-cyclohexyl-4-((3-fluoro-4-(2-(4-methylpyridin-2-ylamino)thiazol-5-ylthio)picolinamido)methyl)piperidine-1-carboxylate] the value was 25000 nM. On the same count and under the same terms, in the case of `Cc1ccnc(Nc2ncc(Sc3ccnc(C(=O)NCC4(c5ccccn5)CCN(CCO)CC4)c3F)s2)c1` [Example 58, 3-fluoro-N-((1-(2-hydroxyethyl)-4-(pyridin-2-yl)piperidin-4-yl)methyl)-4-(2-(4-methylpyridin-2-ylamino)thiazol-5-ylthio)picolinamide] it was 3 nM. Turning to `Cc1ccnc(Nc2ncc(Sc3ccnc(C(=O)NCC4(C5CCCCC5)CCN(C[C@H](O)CO)CC4)c3F)s2)c1` [Example 74, (S)—N-((4-cyclohexyl-1-(2,3-dihydroxypropyl)piperidin-4-yl)methyl)-3-fluoro-4-(2-(4-methylpyridin-2-ylamino)thiazol-5-ylthio)picolinamide], the concentration for half-maximal inhibition (IC50) at IGF1-receptor worked out at 9 nM. The “% TGI” value in the experiment on IGF1R-Sal tumors (50 mg/kg) was 100%.

For the compound `Cc1ccnc(Nc2ncc(Sc3ccnc(C(=O)NCC4(c5ccc(F)cc5F)CCN(C[C@H](O)CO)CC4)c3F)s2)c1` [Example 77, (S)—N-((4-(2,4-difluorophenyl)-1-(2,3-dihydroxypropyl)piperidin-4-yl)methyl)-3-fluoro-4-(2-(4-methylpyridin-2-ylamino)thiazol-5-ylthio)picolinamide], the IC50 on IGF1-receptor came out at 9 nM. Besides, the “% TGI” value in the experiment with IGF1R-Sal tumors (25 mg/kg) is 114%. Take `COCCOC(=O)N1CCC(CNC(=O)c2nccc(Sc3cnc(Nc4cc(C)ccn4)s3)c2F)(c2ccc(Cl)c(Cl)c2)CC1` [Example 86, 2-methoxyethyl 4-(3,4-dichlorophenyl)-4-((3-fluoro-4-(2-(4-methylpyridin-2-ylamino)thiazol-5-ylthio)picolinamido)methyl)piperidine-1-carboxylate]: on IGF1-receptor, the IC50 was found to be 5690 nM. Consider `COC(=O)N1CCC(CNC(=O)c2nccc(Sc3cnc(Nc4cc(C)ccn4)s3)c2F)(c2ccccn2)CC1` [Example 87, Methyl 4-((3-fluoro-4-(2-(4-methylpyridin-2-ylamino)thiazol-5-ylthio)picolinamido)methyl)-4-(pyridin-2-yl)piperidine-1-carboxylate], for which the IC50 at IGF1-receptor amounted to 423 nM. Still for that read-out and setting: in the case of `COCCOC(=O)N1CCC(CNC(=O)c2nccc(Sc3cnc(Nc4cc(C)ccn4)s3)c2F)(c2ccccn2)CC1` [Example 88, 2-Methoxyethyl 4-((3-fluoro-4-(2-(4-methylpyridin-2-ylamino)thiazol-5-ylthio)picolinamido)methyl)-4-(pyridin-2-yl)piperidine-1-carboxylate] it was 349 nM; in that of `Cc1ccnc(Nc2ncc(Sc3ccnc(C(=O)NCC4(c5ccccc5)CCN(C(=O)N(C)C)CC4)c3F)s2)c1` [Example 89, N-((1-(dimethylcarbamoyl)-4-phenylpiperidin-4-yl)methyl)-3-fluoro-4-(2-(4-methylpyridin-2-ylamino)thiazol-5-ylthio)picolinamide], 358 nM; in that of `Cc1ccnc(Nc2ncc(Sc3ccnc(C(=O)NCC4(c5ccccc5)CCN(C(=O)N5CCOCC5)CC4)c3F)s2)c1` [Example 90, 3-Fluoro-4-(2-(4-methylpyridin-2-ylamino)thiazol-5-ylthio)-N-((1-(morpholine-4-carbonyl)-4-phenylpiperidin-4-yl)methyl)picolinamide], 311 nM. On the same count and under the same terms, for `Cc1ccnc(Nc2ncc(Sc3ccnc(C(=O)NCC4(c5ccccc5)CCN(C(=O)c5ccc(Cl)c(S(N)(=O)=O)c5)CC4)c3F)s2)c1` [Example 92, N-((1-(4-chloro-3-sulfamoylbenzoyl)-4-phenylpiperidin-4-yl)methyl)-3-fluoro-4-(2-(4-methylpyridin-2-ylamino)thiazol-5-ylthio)picolinamide] the value was 2000 nM; for `Cc1ccnc(Nc2ncc(Sc3ccnc(C(=O)NCC4(c5ccccc5)CCN(C(=O)c5cc(S(N)(=O)=O)c(F)cc5Cl)CC4)c3F)s2)c1` [Example 93, N-((1-(2-chloro-4-fluoro-5-sulfamoylbenzoyl)-4-phenylpiperidin-4-yl)methyl)-3-fluoro-4-(2-(4-methylpyridin-2-ylamino)thiazol-5-ylthio)picolinamide], 3260 nM. Consider `Cc1ccnc(Nc2ncc(Sc3ccnc(C(=O)NCC4(c5ccccc5)CCN(C(=O)C(C)(C)N)CC4)c3F)s2)c1` [Example 95, N-((1-(2-amino-2-methylpropanoyl)-4-phenylpiperidin-4-yl)methyl)-3-fluoro-4-(2-(4-methylpyridin-2-ylamino)thiazol-5-ylthio)picolinamide], for which, at IGF1-receptor, the IC50 came out at 4520 nM.
